Test system: 556581-035-R-J1-PDC complex spheroid growth
Assay: Anticancer human tumor 556581-035-R-J1-PDC patient-derived ovarian carcinoma cell line growth inhibition [AhR]
Conditions: for IC50: curve of first compound; for viability, T/C: stronger effect = lower value; active = viability on the fitted dose curve at most 10% of control; inactive = the rest
In short: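 Spheroids combined tumor cells with HUVEC endothelial cells and human MSCs as stroma. AhR antagonists were paired with standard or investigational drugs, each dosed in half-log steps down from near clinical Cmax, or from 10 microM where Cmax was unknown.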

[1] = second compound 0.1 µM, first compound 0.0316 µM
[2] = second compound 0.1 µM, first compound 0.1 µM
[3] = second compound 0.1 µM, first compound 0.316 µM
[4] = second compound 0.1 µM, first compound 1 µM
[5] = second compound 0.1 µM, first compound 3.16 µM
[6] = second compound 0.1 µM, first compound 10 µM
[7] = second compound 0.316 µM, first compound 0.0316 µM
[8] = second compound 0.316 µM, first compound 0.1 µM
[9] = second compound 0.316 µM, first compound 0.316 µM
[10] = second compound 0.316 µM, first compound 1 µM
[11] = second compound 0.316 µM, first compound 3.16 µM
[12] = second compound 0.316 µM, first compound 10 µM
[13] = second compound 1 µM, first compound 0.0316 µM
[14] = second compound 1 µM, first compound 0.1 µM
[15] = second compound 1 µM, first compound 0.316 µM
[16] = second compound 1 µM, first compound 1 µM
[17] = second compound 1 µM, first compound 3.16 µM
[18] = second compound 1 µM, first compound 10 µM
[19] = second compound 3.16 µM, first compound 0.0316 µM
[20] = second compound 3.16 µM, first compound 0.1 µM
[21] = second compound 3.16 µM, first compound 0.316 µM
[22] = second compound 3.16 µM, first compound 1 µM
[23] = second compound 3.16 µM, first compound 3.16 µM
[24] = second compound 3.16 µM, first compound 10 µM
[25] = second compound 10 µM, first compound 0.0316 µM
[26] = second compound 10 µM, first compound 0.1 µM
[27] = second compound 10 µM, first compound 0.316 µM
[28] = second compound 10 µM, first compound 1 µM
[29] = second compound 10 µM, first compound 3.16 µM
[30] = second compound 10 µM, first compound 10 µM
[31] = second compound 0.1 µM, first compound 0.00949 µM
[32] = second compound 0.1 µM, first compound 0.03 µM
[33] = second compound 0.1 µM, first compound 0.0949 µM
[34] = second compound 0.1 µM, first compound 0.3 µM
[35] = second compound 0.316 µM, first compound 0.00949 µM
[36] = second compound 0.316 µM, first compound 0.03 µM
[37] = second compound 0.316 µM, first compound 0.0949 µM
[38] = second compound 0.316 µM, first compound 0.3 µM
[39] = second compound 1 µM, first compound 0.00949 µM
[40] = second compound 1 µM, first compound 0.03 µM
[41] = second compound 1 µM, first compound 0.0949 µM
[42] = second compound 1 µM, first compound 0.3 µM
[43] = second compound 3.16 µM, first compound 0.00949 µM
[44] = second compound 3.16 µM, first compound 0.03 µM
[45] = second compound 3.16 µM, first compound 0.0949 µM
[46] = second compound 3.16 µM, first compound 0.3 µM
[47] = second compound 10 µM, first compound 0.00949 µM
[48] = second compound 10 µM, first compound 0.03 µM
[49] = second compound 10 µM, first compound 0.0949 µM
[50] = second compound 10 µM, first compound 0.3 µM
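Throughout, for viability, T/C: compound exposure lasted 7 days; 100% = DMSO vehicle control growth.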

CC1(C)CCC(CN2CCN(c3ccc(C(=O)NS(=O)(=O)c4ccc(NCC5CCOCC5)c([N+](=O)[O-])c4)c(Oc4cnc5[nH]ccc5c4)c3)CC2)=C(c2ccc(Cl)cc2)C1 + Cc1ccccc1N=Nc1ccc(NC(=O)c2ccnn2C)c(C)c1
> 10 µM: IC50 (second compound 0.1 µM) | IC50 (second compound 0.316 µM) | IC50 (second compound 1 µM) | IC50 (second compound 3.16 µM) | IC50 (second compound 10 µM)
inactive: viability, T/C [1] 97.1% | viability, T/C [2] 108% | viability, T/C [3] 106% | viability, T/C [4] 103% | viability, T/C [5] 106% | viability, T/C [6] 82.4% | viability, T/C [7] 99.3% | viability, T/C [8] 105% | viability, T/C [9] 113% | viability, T/C [10] 99.6% | viability, T/C [11] 108% | viability, T/C [12] 85.9% | viability, T/C [13] 102% | viability, T/C [14] 101% | viability, T/C [15] 109% | viability, T/C [16] 98.3% | viability, T/C [17] 97.5% | viability, T/C [18] 78.1% | viability, T/C [19] 96.7% | viability, T/C [20] 97.1% | viability, T/C [21] 97.7% | viability, T/C [22] 97.9% | viability, T/C [23] 103% | viability, T/C [24] 90.3% | viability, T/C [25] 101% | viability, T/C [26] 97.5% | viability, T/C [27] 97.6% | viability, T/C [28] 95.6% | viability, T/C [29] 86.7% | viability, T/C [30] 77.2%

CCN(c1cc(-c2ccc(CN3CCOCC3)cc2)cc(C(=O)NCc2c(C)cc(C)[nH]c2=O)c1C)C1CCOCC1 + Cc1ccccc1N=Nc1ccc(NC(=O)c2ccnn2C)c(C)c1
inactive: viability, T/C [31] 92% | viability, T/C [32] 97% | viability, T/C [33] 85.8% | viability, T/C [34] 91.5% | viability, T/C (second compound 0.1 µM, first compound 0.949 µM) 90.9% | viability, T/C (second compound 0.1 µM, first compound 3 µM) 86.8% | viability, T/C [35] 95.2% | viability, T/C [36] 98.2% | viability, T/C [37] 88.9% | viability, T/C [38] 85.4% | viability, T/C (second compound 0.316 µM, first compound 0.949 µM) 86.2% | viability, T/C (second compound 0.316 µM, first compound 3 µM) 81.1% | viability, T/C [39] 81.4% | viability, T/C [40] 85.6% | viability, T/C [41] 88.4% | viability, T/C [42] 82.6% | viability, T/C (second compound 1 µM, first compound 0.949 µM) 82.4% | viability, T/C (second compound 1 µM, first compound 3 µM) 89.1% | viability, T/C [43] 84.5% | viability, T/C [44] 88.1% | viability, T/C [45] 87.6% | viability, T/C [46] 73.9% | viability, T/C (second compound 3.16 µM, first compound 0.949 µM) 91.8% | viability, T/C (second compound 3.16 µM, first compound 3 µM) 78% | viability, T/C [47] 74.9% | viability, T/C [48] 90.3% | viability, T/C [49] 83.8% | viability, T/C [50] 79% | viability, T/C (second compound 10 µM, first compound 0.949 µM) 77% | viability, T/C (second compound 10 µM, first compound 3 µM) 73.4%
> 3 µM: IC50 (second compound 0.1 µM) | IC50 (second compound 0.316 µM) | IC50 (second compound 1 µM) | IC50 (second compound 3.16 µM) | IC50 (second compound 10 µM)

Cn1ncnc1C1c2n[nH]c(=O)c3cc(F)cc(c23)NC1c1ccc(F)cc1 (stereo not given) + Cc1ccccc1N=Nc1ccc(NC(=O)c2ccnn2C)c(C)c1
> 0.1 µM: IC50 (second compound 0.1 µM) | IC50 (second compound 0.316 µM) | IC50 (second compound 1 µM) | IC50 (second compound 3.16 µM) | IC50 (second compound 10 µM)
inactive: viability, T/C (second compound 0.1 µM, first compound 0.000316 µM) 102% | viability, T/C (second compound 0.1 µM, first compound 0.001 µM) 112% | viability, T/C (second compound 0.1 µM, first compound 0.00316 µM) 103% | viability, T/C (second compound 0.1 µM, first compound 0.01 µM) 105% | viability, T/C [1] 94.9% | viability, T/C [2] 97.4% | viability, T/C (second compound 0.316 µM, first compound 0.000316 µM) 112% | viability, T/C (second compound 0.316 µM, first compound 0.001 µM) 114% | viability, T/C (second compound 0.316 µM, first compound 0.00316 µM) 113% | viability, T/C (second compound 0.316 µM, first compound 0.01 µM) 103% | viability, T/C [7] 104% | viability, T/C [8] 94.3% | viability, T/C (second compound 1 µM, first compound 0.000316 µM) 116% | viability, T/C (second compound 1 µM, first compound 0.001 µM) 99.6% | viability, T/C (second compound 1 µM, first compound 0.00316 µM) 109% | viability, T/C (second compound 1 µM, first compound 0.01 µM) 100% | viability, T/C [13] 97.8% | viability, T/C [14] 105% | viability, T/C (second compound 3.16 µM, first compound 0.000316 µM) 110% | viability, T/C (second compound 3.16 µM, first compound 0.001 µM) 101% | viability, T/C (second compound 3.16 µM, first compound 0.00316 µM) 94.6% | viability, T/C (second compound 3.16 µM, first compound 0.01 µM) 96.5% | viability, T/C [19] 104% | viability, T/C [20] 111% | viability, T/C (second compound 10 µM, first compound 0.000316 µM) 92.2% | viability, T/C (second compound 10 µM, first compound 0.001 µM) 108% | viability, T/C (second compound 10 µM, first compound 0.00316 µM) 89.8% | viability, T/C (second compound 10 µM, first compound 0.01 µM) 98.8% | viability, T/C [25] 93.8% | viability, T/C [26] 92.3%

NS(=O)(=O)OCC1CC(n2ccc3c(NC4CCc5ccccc54)ncnc32)CC1O (stereo not given) + Cc1ccccc1N=Nc1ccc(NC(=O)c2ccnn2C)c(C)c1
> 10 µM: IC50 (second compound 0.1 µM) | IC50 (second compound 0.316 µM) | IC50 (second compound 1 µM) | IC50 (second compound 3.16 µM) | IC50 (second compound 10 µM)
inactive: viability, T/C [1] 101% | viability, T/C [2] 103% | viability, T/C [3] 103% | viability, T/C [4] 108% | viability, T/C [5] 106% | viability, T/C [6] 82.2% | viability, T/C [7] 105% | viability, T/C [8] 104% | viability, T/C [9] 97.2% | viability, T/C [10] 103% | viability, T/C [11] 93.9% | viability, T/C [12] 80.2% | viability, T/C [13] 92.9% | viability, T/C [14] 102% | viability, T/C [15] 101% | viability, T/C [16] 101% | viability, T/C [17] 95.7% | viability, T/C [18] 79.7% | viability, T/C [19] 97.1% | viability, T/C [20] 96.5% | viability, T/C [21] 89.3% | viability, T/C [22] 89.7% | viability, T/C [23] 88.8% | viability, T/C [24] 73.3% | viability, T/C [25] 91.3% | viability, T/C [26] 80% | viability, T/C [27] 89.8% | viability, T/C [28] 88.2% | viability, T/C [29] 83.6% | viability, T/C [30] 69.6%

Nc1ncn(C2CC(O)C(CO)S2)c(=O)n1 (stereo not given) + Cc1ccccc1N=Nc1ccc(NC(=O)c2ccnn2C)c(C)c1
inactive: viability, T/C (second compound 0.1 µM, first compound 0.000949 µM) 105% | viability, T/C (second compound 0.1 µM, first compound 0.003 µM) 106% | viability, T/C [31] 115% | viability, T/C [32] 97% | viability, T/C [33] 77.8% | viability, T/C [34] 69.5% | viability, T/C (second compound 0.316 µM, first compound 0.000949 µM) 93.6% | viability, T/C (second compound 0.316 µM, first compound 0.003 µM) 111% | viability, T/C [35] 100% | viability, T/C [36] 95.9% | viability, T/C [37] 78.8% | viability, T/C [38] 63.4% | viability, T/C (second compound 1 µM, first compound 0.000949 µM) 99.5% | viability, T/C (second compound 1 µM, first compound 0.003 µM) 106% | viability, T/C [39] 99.9% | viability, T/C [40] 91.5% | viability, T/C [41] 102% | viability, T/C [42] 64.5% | viability, T/C (second compound 3.16 µM, first compound 0.000949 µM) 87.1% | viability, T/C (second compound 3.16 µM, first compound 0.003 µM) 101% | viability, T/C [43] 88.1% | viability, T/C [44] 90.6% | viability, T/C [45] 76.8% | viability, T/C [46] 65.7% | viability, T/C (second compound 10 µM, first compound 0.000949 µM) 90% | viability, T/C (second compound 10 µM, first compound 0.003 µM) 95.2% | viability, T/C [47] 84.1% | viability, T/C [48] 80.1% | viability, T/C [49] 83.1% | viability, T/C [50] 68%
> 0.3 µM: IC50 (second compound 0.1 µM) | IC50 (second compound 0.316 µM) | IC50 (second compound 1 µM) | IC50 (second compound 3.16 µM) | IC50 (second compound 10 µM)
